Results as given in article PMC9901164, “Cloning and characterization of nitrate reductase gene in kelp Saccharina japonica (Laminariales, Phaeophyta)” (BMC Plant Biology, 2023).

Tests used:
[1] = target: T1, rSjNR-S (Saccharina japonica, UniProt A0A977LKQ3); experiment: Griess colorimetric nitrite assay, single concentration; format: biochemical; settings: 5 mM KNO3, 0.2 mM NADH, 100 mM HEPES pH 7.6, 10 μM FAD, 10 μM sodium molybdate, 10 mM MgCl2, 5 mM DTT, 24 °C
T1 construct: E. coli BL21(DE3) pCold-SUMO-10His, Ni-NTA, SUMO tag cut off
T1 sequence (A0A977LKQ3 1-705): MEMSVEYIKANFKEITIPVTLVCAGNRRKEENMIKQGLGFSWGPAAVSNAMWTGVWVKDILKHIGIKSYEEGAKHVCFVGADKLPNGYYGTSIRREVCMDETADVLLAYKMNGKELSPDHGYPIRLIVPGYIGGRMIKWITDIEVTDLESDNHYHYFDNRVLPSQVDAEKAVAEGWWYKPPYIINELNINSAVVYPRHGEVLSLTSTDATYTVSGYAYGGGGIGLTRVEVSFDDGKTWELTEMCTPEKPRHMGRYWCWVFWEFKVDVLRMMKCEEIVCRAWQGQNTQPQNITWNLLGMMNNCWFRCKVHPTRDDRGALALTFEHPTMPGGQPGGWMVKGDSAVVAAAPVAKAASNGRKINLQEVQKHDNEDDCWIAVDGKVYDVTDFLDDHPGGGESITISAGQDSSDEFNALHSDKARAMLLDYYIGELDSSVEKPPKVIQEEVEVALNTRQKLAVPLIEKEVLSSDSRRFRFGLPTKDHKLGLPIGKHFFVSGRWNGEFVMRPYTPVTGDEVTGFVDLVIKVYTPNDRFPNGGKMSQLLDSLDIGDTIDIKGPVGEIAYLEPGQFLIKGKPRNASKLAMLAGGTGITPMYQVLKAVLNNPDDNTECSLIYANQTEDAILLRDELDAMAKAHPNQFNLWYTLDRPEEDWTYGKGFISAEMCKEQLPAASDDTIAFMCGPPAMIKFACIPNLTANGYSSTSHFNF

[2] = substrate: O=[N+]([O-])O; experiment: Griess colorimetric nitrite assay, Michaelis-Menten nonlinear regression; format: biochemical, Saccharina japonica; settings: 0.2 mM NADH, 100 mM HEPES pH 7.6, 10 μM FAD, 10 μM sodium molybdate, 10 mM MgCl2, 5 mM DTT, 24 °C, KNO3 0-20 mM, apparent

NC(=O)C1=CN([C@@H]2O[C@H](COP(=O)(O)OP(=O)(O)OC[C@H]3O[C@@H](n4cnc5c(N)ncnc54)[C@H](O)[C@@H]3O)[C@@H](O)[C@H]2O)C=CC1 [NADH]
Griess colorimetric nitrite assay, single concentration ([1]; electron donor): the activity of rSjNR-S was lower than that of rSjNR-L

O=[N+]([O-])O [KNO3]
Griess colorimetric nitrite assay, single concentration [1]: both rSjNR-L and rSjNR-S showed NR activity in vitro

B1: rSjNR-L (Saccharina japonica) (protein)
chain: MASGIQSCKPEKADASLVNIKGHDYYKDTFVPPAEDVTEIDPRDKGTPDDWVPRHPELVRLTGRHPFNVEPPVWRIKDHGFISPNSLHYVRNHGAVPRIVQGDSHKVRFGGAIDKPMEMSVEYIKANFKEITIPVTLVCAGNRRKEENMIKQGLGFSWGPAAVSNAMWTGVWVKDILKHIGIKSYEEGAKHVCFVGADKLPNGYYGTSIRREVCMDETADVLLAYKMNGKELSPDHGYPIRLIVPGYIGGRMIKWITDIEVTDLESDNHYHYFDNRVLPSQVDAEKAVAEGWWYKPPYIINELNINSAVVYPRHGEVLSLTSTDATYTVSGYAYGGGGIGLTRVEVSFDDGKTWELTEMCTPEKPRHMGRYWCWVFWEFKVDVLRMMKCEEIVCRAWQGQNTQPQNITWNLLGMMNNCWFRCKVHPTRDDRGALALTFEHPTMPGGQPGGWMVKGDSAVVAAAPVAKAASNGRKINLQEVQKHDNEDDCWIAVDGKVYDVTDFLDDHPGGGESITISAGQDSSDEFNALHSDKARAMLLDYYIGELDSSVEKPPKVIQEEVEVALNTRQKLAVPLIEKEVLSSDSRRFRFGLPTKDHKLGLPIGKHFFVSGRWNGEFVMRPYTPVTGDEVTGFVDLVIKVYTPNDRFPNGGKMSQLLDSLDIGDTIDIKGPVGEIAYLEPGQFLIKGKPRNASKLAMLAGGTGITPMYQVLKAVLNNPDDNTECSLIYANQTEDAILLRDELDAMAKAHPNQFNLWYTLDRPEEDWTYGKGFISAEMCKEQLPAASDDTIAFMCGPPAMIKFACIPNLTANGYSSTSHFNF
notes: E. coli BL21(DE3) pCold-SUMO-10His, Ni-NTA, SUMO tag cut off
Km [2]: 0.42 (± 0.059) mM
